# Assay results from PubChem BioAssay (NCI).
# “And” between values parts separate entries of the source, which are not always exact repeats. Equal entries are not always repeated.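 Briefly, cells in 96-well plates were exposed to five compound concentrations for 48 h, and endpoints were estimated by linear interpolation. GI50 is the concentration that inhibits growth by half. Definition used: TGI = concentration required for complete inhibition of growth.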
# Assays:
# Assay in all cases: NCI anticancer screen, dose series, 48 h
# [1] = tested on: DU-145 prostate
# [2] = tested on: RPMI-8226 leukemia
# [3] = tested on: CCRF-CEM leukemia
# [4] = tested on: U251 CNS
# [5] = tested on: T-47D breast
# [6] = tested on: ACHN renal
# [7] = tested on: A549 NSCLC
# [8] = tested on: EKVX NSCLC
# [9] = tested on: HCC-2998 colon
# [10] = tested on: COLO 205 colon
Compound,GI50 [1],TGI [1],GI50 [2],TGI [2],GI50 [3],TGI [3],GI50 [4],TGI [4],GI50 [5],TGI [5],GI50 [6],TGI [6],GI50 [7],TGI [7],GI50 [8],TGI [8],GI50 [9],TGI [9],GI50 [10],TGI [10]
CN1CCCN(CCNc2nccc(-c3c(-c4cccc(O)c4)nc4sccn34)n2)S1(=O)=O,6.84 µM and 6.32 µM,46.9 µM and > 59.3 µM,16.7 µM and 15.2 µM,37.2 µM and 41.3 µM,8.29 µM and 4.7 µM,75 µM and 46.6 µM,8.99 µM and 11.9 µM,50.4 µM and > 51.1 µM,14.2 µM and 11.8 µM,57.1 µM and > 88.7 µM,2.72 µM and 2.91 µM,75 µM and > 100 µM,7.46 µM and 7.71 µM,75 µM and > 100 µM,31.1 µM and 30.3 µM,75 µM and > 100 µM,13.4 µM and 19.4 µM,34.5 µM and > 88.2 µM,0.423 µM and 0.477 µM,12.4 µM and 21.8 µM
COc1cc(-c2oc3ccccc3c(=O)c2O)cc(OC)c1OC,–,> 100 µM,–,> 100 µM,–,> 30.5 µM,–,> 100 µM,–,> 100 µM,–,75.4 µM,–,> 100 µM,–,> 100 µM,–,> 100 µM,–,> 100 µM
Cn1cc(C2=C(c3cn(C)c4ccc(N)cc34)C(=O)NC2=O)c2ccccc21,12.3 µM,> 25 µM,> 16.5 µM,> 25 µM,6.95 µM,> 25 µM,8.96 µM,> 25 µM,18.8 µM,> 25 µM,13.9 µM,> 25 µM,12.5 µM,> 25 µM,–,–,> 25 µM,> 25 µM,6 µM,> 20.5 µM
COc1ccc(-c2cc(-c3ccc(Cl)cc3)c(C#N)c(=O)n2CCCCC(=O)Nc2ccccc2N)cc1,16.3 µM,> 100 µM,0.789 µM,6.68 µM,4.87 µM,> 100 µM,7.97 µM,> 100 µM,4.44 µM,> 100 µM,5.25 µM,> 100 µM,4.94 µM,> 100 µM,3.25 µM,91.3 µM,6.2 µM,79.9 µM,4.04 µM,> 100 µM
Fc1cccc(COc2ccc(Nc3ncnc4sc(-c5ccco5)cc34)cc2Cl)c1,> 25 µM,> 25 µM,> 25 µM,> 25 µM,> 25 µM,> 25 µM,> 25 µM,> 25 µM,> 14.5 µM,> 25 µM,> 25 µM,> 25 µM,> 25 µM,> 25 µM,> 25 µM,> 25 µM,> 25 µM,> 25 µM,> 25 µM,> 25 µM
COC(=O)C1=C(OC(=O)c2ccc(Cl)cc2)C(C(=O)OC)[C@@]2(O)[C@@H](C(=O)OC)C(c3ccccc3C(F)(F)F)C[C@@H]1[C@@H]2C(=O)OC (stereo partly drawn),6.1 µM,> 100 µM,2.99 µM,> 100 µM,3.54 µM,31.2 µM,3.26 µM,21.4 µM,4.82 µM,> 100 µM,3.19 µM,> 100 µM,3.59 µM,28.8 µM,8.1 µM,> 100 µM,5.54 µM,> 100 µM,3.31 µM,> 100 µM
